# Measurements as given in patent publication US7291743B2, “Isoxazole derivatives and methods of treating nitric oxide mediated diseases” (Geneblue Corporation, priority 2005, dated 2007).
# Tests used:
# [1] = test system: RAW264.7 cells (murine macrophage); experiment: Inhibition of nitric oxide production in vitro (nitrite by Griess reagent in LPS-stimulated macrophage cells); assay type: cell-based; details: Mus musculus, LPS 1 μg/mL, 24 hours, test solution 25-200 μM, nitrite by Griess reagent at 550 nm, Mean ± S.E. of 4-6 observations, read-out: IC50 (inhibition of LPS-induced NO production)
# Procedure: • 1. Prepare the cell culture medium DMEM (Dulbecco's modified eagle medium) with 10% fetal calf serum and 10% penicillin-streptomycin. Grow RAW264.7 cells (murine macrophage) in the medium in an incubator at 37° C. under 5% CO2 and saturated water vapor. • 2. Dissolve each test compound in DMSO to make a stock solution. Prepare the test solutions by making suitable dilutions of each stock solution with DMEM. • 3. Add the LPS solution (final concentration=1 μg/mL) and the test solution (final concentration ranging from 25, 50, 100, and up to 200 μM) to individual cell cultures and place in the incubator for 24 hours. • 4. In vitro Nitrite quantification: The production of NO was determined by measuring the accumulated levels of nitrite in culture supernatants with the Griess reagent in LPS-stimulated macrophage cells. • (a) Withdraw 100 μL of the medium from each cell culture and place in a 96-well plate microplate. Add 100 μL of Griess reagent to the medium at room temperature and cover with aluminum foil for 10 minutes. • (b) Measure the absorption by a Dynatech ELISA reader at 550 nm. NaNO2 was used as the standard to calculate the nitrite concentration. • (c) Calculate the % inhibiiton by the following equation: […]
# Wherein RM is the reading of medium only, RM+L is the reading of medium with LPS, RM+L+C is the reading of medium with LPS and test compound.
# [2] = test system: inducible nitric oxide synthase (iNOS) in rat astrocytes; details: cited from earlier work
melting point [°C],SMILES,IC50 [1] [µM],inhibition of activation of iNOS [2]
178 to 180,Cc1cc(C(=O)Nc2ccc(NC(=O)c3cc(C)on3)cc2)no1 [Compound 14c],0.6 ± 0.01,–
–,"C/C(O)=C(\C#N)C(=O)Nc1ccc(C(F)(F)F)cc1 [Compound A771726, reference compound]",175 ± 4.7,–
–,"Cc1oncc1C(=O)Nc1ccc(C(F)(F)F)cc1 [lefunomide, leflunomide]",–,inhibit activation of iNOS in rat astrocytes
148 to 150,Cc1cc(C(=O)Oc2ccc(OC(=O)c3cc(C)on3)cc2)no1 [Compound 15c],7.6 ± 0.4,–
